Earlier results as cited in patent publication US8962668B2, “Treatment of length dependent neuropathy” (Arcion Therapeutics, Inc., priority 2005, dated 2015).

Tested on: patients with painful diabetic neuropathy

Clc1cccc(Cl)c1N=C1NCCN1 [clonidine]
difference between clonidine transdermal patches and placebo patches (placebo-controlled cross-over pain trial (Zeigler et al.)): no statistically significant difference
pain reduction relative to placebo (responders rechallenged, highest transdermal patch dosage, p<0.015): modest although statistically significant
clonidine responders (transdermal patches, twelve of forty-one patients who completed initial course (Byas-Smith et al.)): 29%
